Where two headings read alike, the source gives them in different places.
What was measured:
Type in all cases: in vivo
[1] = system: Kochia (Kochia scoparia); experiment: Test A postemergence; conditions: Bassia scoparia, post-emergence, 240 h, 125 g ai/ha, Postemergence; visual injury after approximately 10 d; 0 to 100 scale where 0 is no effect and 100 is complete control; read-out: Plant response rating, Kochia
How it was run: (§1)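 Treatment is preemergence as a directed soil spray after planting, or postemergence at the one- to two-leaf stage, with test chemical in a non-phytotoxic solvent mixture plus surfactant. Plants stay in the greenhouse about 10 d before visual injury scoring on a 0 to 100 scale versus untreated controls.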

[2] = system: blackgrass (Alopecurus myosuroides); experiment: Test A postemergence; conditions: Alopecurus myosuroides, post-emergence, 240 h, 125 g ai/ha, Postemergence; visual injury after approximately 10 d; 0 to 100 scale where 0 is no effect and 100 is complete control; read-out: Plant response rating, Blackgrass
How it was run: as §1

[3] = system: barnyardgrass (Echinochloa crus-galli); experiment: Test A postemergence; conditions: Echinochloa crus-galli, post-emergence, 240 h, 125 g ai/ha, Postemergence; visual injury after approximately 10 d; 0 to 100 scale where 0 is no effect and 100 is complete control; read-out: Plant response rating, Barnyardgrass
How it was run: as §1

[4] = system: giant foxtail (Setaria faberii); experiment: Test A postemergence; conditions: Setaria faberi, post-emergence, 240 h, 125 g ai/ha, Postemergence; visual injury after approximately 10 d; 0 to 100 scale where 0 is no effect and 100 is complete control; read-out: Plant response rating, Foxtail, Giant
How it was run: as §1

[5] = system: ragweed (common ragweed, Ambrosia elatior); experiment: Test A postemergence; conditions: Ambrosia artemisiifolia, post-emergence, 240 h, 125 g ai/ha, Postemergence; visual injury after approximately 10 d; 0 to 100 scale where 0 is no effect and 100 is complete control; read-out: Plant response rating, Ragweed
How it was run: as §1

[6] = system: Kochia (Kochia scoparia); experiment: Test A preemergence; conditions: Bassia scoparia, pre-emergence, 240 h; for pest or weed control at 125 g/ha: 125 g ai/ha, 0 to 100 scale where 0 is no effect and 100 is complete control; for pest or weed control at 500 g/ha: 500 g ai/ha
How it was run: as §1

[7] = system: barnyardgrass (Echinochloa crus-galli); experiment: Test A preemergence; conditions: Echinochloa crus-galli, pre-emergence, 240 h; for pest or weed control at 125 g/ha: 125 g ai/ha, 0 to 100 scale where 0 is no effect and 100 is complete control; for pest or weed control at 500 g/ha: 500 g ai/ha
How it was run: as §1

[8] = system: giant foxtail (Setaria faberii); experiment: Test A preemergence; conditions: Setaria faberi, pre-emergence, 240 h; for pest or weed control at 125 g/ha: 125 g ai/ha, 0 to 100 scale where 0 is no effect and 100 is complete control; for pest or weed control at 500 g/ha: 500 g ai/ha
How it was run: as §1

[9] = system: pigweed (Amaranthus retroflexus); experiment: Test A preemergence; conditions: Amaranthus retroflexus, pre-emergence, 240 h; for pest or weed control at 125 g/ha: 125 g ai/ha, 0 to 100 scale where 0 is no effect and 100 is complete control; for pest or weed control at 500 g/ha: 500 g ai/ha
[10] = system: ryegrass, Italian (Italian ryegrass, Lolium multiflorum); experiment: Test A preemergence; conditions: Lolium multiflorum, pre-emergence, 240 h; for pest or weed control at 125 g/ha: 125 g ai/ha, 0 to 100 scale where 0 is no effect and 100 is complete control; for pest or weed control at 500 g/ha: 500 g ai/ha
How it was run: as §1

[11] = system: ragweed (common ragweed, Ambrosia elatior); experiment: Test A preemergence; conditions: Ambrosia artemisiifolia, pre-emergence, 240 h; for pest or weed control at 125 g/ha: 125 g ai/ha, 0 to 100 scale where 0 is no effect and 100 is complete control; for pest or weed control at 500 g/ha: 500 g ai/ha
How it was run: as §1

[12] = system: rice (Oryra sativa); experiment: Test B flooded paddy test; conditions: Oryza sativa, Flood, 250 g ai/ha; scale of 0 to 100 where 0 is no effect and 100 is complete control; read-out: Rice plant response rating
How it was run: (§2)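 Response scored visually against untreated controls, 0 = no effect and 100 = complete control, 13–15 d after treatment in the greenhouse. Compounds added to paddy water held 3 cm above soil surface. Treatment given at 2-leaf stage.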

[13] = system: barnyardgrass (Echinochloa crus-galli); experiment: Test B flooded paddy test; conditions: Echinochloa crus-galli, Flood, 250 g ai/ha; scale of 0 to 100 where 0 is no effect and 100 is complete control; read-out: Barnyardgrass plant response rating
How it was run: as §2

[14] = system: ducksalad (Heteranthera limosa); experiment: Test B flooded paddy test; conditions: Heteranthera limosa, Flood, 250 g ai/ha; scale of 0 to 100 where 0 is no effect and 100 is complete control; read-out: Ducksalad plant response rating
How it was run: as §2

[15] = system: sedge, umbrella (small-flower umbrella sedge, Cyperus difformis); experiment: Test B flooded paddy test; conditions: Cyperus difformis, Flood, 250 g ai/ha; scale of 0 to 100 where 0 is no effect and 100 is complete control; read-out: Sedge, Umbrella plant response rating
How it was run: as §2

[16] = preemergence, read-out: Kochia plant response rating
[17] = Preemergence, visual injury vs untreated controls after approximately 10 d, read-out: Kochia plant response rating (0 to 100 scale where 0 is no effect and 100 is complete control)
[18] = preemergence, read-out: Barnyardgrass plant response rating
[19] = Preemergence, visual injury vs untreated controls after approximately 10 d, read-out: Barnyardgrass plant response rating (0 to 100 scale where 0 is no effect and 100 is complete control)
[20] = preemergence, read-out: Foxtail, Giant plant response rating
[21] = Preemergence, visual injury vs untreated controls after approximately 10 d, read-out: Foxtail, Giant plant response rating (0 to 100 scale where 0 is no effect and 100 is complete control)
[22] = preemergence, read-out: Pigweed plant response rating
[23] = Preemergence, visual injury vs untreated controls after approximately 10 d, read-out: Pigweed plant response rating (0 to 100 scale where 0 is no effect and 100 is complete control)
[24] = preemergence, read-out: Ryegrass, Italian plant response rating
[25] = Preemergence, visual injury vs untreated controls after approximately 10 d, read-out: Ryegrass, Italian plant response rating (0 to 100 scale where 0 is no effect and 100 is complete control)
[26] = preemergence, read-out: Ragweed plant response rating
[27] = Preemergence, visual injury vs untreated controls after approximately 10 d, read-out: Ragweed plant response rating (0 to 100 scale where 0 is no effect and 100 is complete control)
[28] = preemergence, visual injury rating about 10 d after treatment, 0 to 100 scale (0 no effect, 100 complete control), read-out: Kochia plant response rating
[29] = preemergence, visual injury rating about 10 d after treatment, 0 to 100 scale (0 no effect, 100 complete control), read-out: Barnyardgrass plant response rating
[30] = preemergence, visual injury rating about 10 d after treatment, 0 to 100 scale (0 no effect, 100 complete control), read-out: Foxtail, Giant plant response rating
[31] = preemergence, visual injury rating about 10 d after treatment, 0 to 100 scale (0 no effect, 100 complete control), read-out: Pigweed plant response rating
[32] = preemergence, visual injury rating about 10 d after treatment, 0 to 100 scale (0 no effect, 100 complete control), read-out: Ryegrass, Italian plant response rating
[33] = preemergence, visual injury rating about 10 d after treatment, 0 to 100 scale (0 no effect, 100 complete control), read-out: Ragweed plant response rating

COc1c(F)ccc([C@H]2CNC(=O)[C@@H]2C(=O)Nc2ccccc2S(C)(=O)=O)c1Cl [Compound 916]
pest or weed control at 125 g/ha [1]: 0%
pest or weed control at 125 g/ha [2]: 0%
pest or weed control at 125 g/ha [3]: 30%
pest or weed control at 125 g/ha [4]: 0%
pest or weed control at 125 g/ha [5]: 0%
pest or weed control at 125 g/ha [6, 16]: 40%
pest or weed control at 500 g/ha [6, 17]: 60%
pest or weed control at 125 g/ha [7, 18]: 30%
pest or weed control at 500 g/ha [7, 19]: 80%
pest or weed control at 125 g/ha [8, 20]: 70%
pest or weed control at 500 g/ha [8, 21]: 80%
pest or weed control at 125 g/ha [9, 22]: 0%
pest or weed control at 500 g/ha [9, 23]: 20%
pest or weed control at 125 g/ha [10, 24]: 0%
pest or weed control at 500 g/ha [10, 25]: 30%
pest or weed control at 125 g/ha [11, 26]: 0%
pest or weed control at 500 g/ha [11, 27]: 70%
pest or weed control at 250 g/ha [12]: 0%
pest or weed control at 250 g/ha [13]: 0%
pest or weed control at 250 g/ha [14]: 100%
pest or weed control at 250 g/ha [15]: 0%

CN1CC[C@H](c2cccc(Cl)c2)[C@@H](C(=O)Nc2ccccc2F)C1=O [Compound 922]
pest or weed control at 125 g/ha [1]: 0%
pest or weed control at 125 g/ha [2]: 0%
pest or weed control at 125 g/ha [3]: 90%
pest or weed control at 125 g/ha [4]: 50%
pest or weed control at 125 g/ha [5]: 0%
pest or weed control at 125 g/ha [6, 16]: 0%
pest or weed control at 500 g/ha [6, 17]: 0%
pest or weed control at 125 g/ha [7, 18]: 60%
pest or weed control at 500 g/ha [7, 19]: 80%
pest or weed control at 125 g/ha [8, 20]: 90%
pest or weed control at 500 g/ha [8, 21]: 90%
pest or weed control at 125 g/ha [9, 22]: 0%
pest or weed control at 500 g/ha [9, 23]: 0%
pest or weed control at 125 g/ha [10, 24]: 20%
pest or weed control at 500 g/ha [10, 25]: 40%
pest or weed control at 125 g/ha [11, 26]: 0%
pest or weed control at 500 g/ha [11, 27]: 0%
pest or weed control at 250 g/ha [12]: 0%
pest or weed control at 250 g/ha [13]: 0%
pest or weed control at 250 g/ha [14]: 0%
pest or weed control at 250 g/ha [15]: 0%

CN1CC[C@H](c2cccc(Cl)c2)[C@@H](C(=O)Nc2ccccc2S(C)(=O)=O)C1=O [Compound 923]
pest or weed control at 125 g/ha [1]: 0%
pest or weed control at 125 g/ha [2]: 0%
pest or weed control at 125 g/ha [3]: 0%
pest or weed control at 125 g/ha [4]: 0%
pest or weed control at 125 g/ha [5]: 0%
pest or weed control at 125 g/ha [6, 16]: 0%
pest or weed control at 500 g/ha [6, 17]: 0%
pest or weed control at 125 g/ha [7, 18]: 0%
pest or weed control at 500 g/ha [7, 19]: 70%
pest or weed control at 125 g/ha [8, 20]: 0%
pest or weed control at 500 g/ha [8, 21]: 70%
pest or weed control at 125 g/ha [9, 22]: 0%
pest or weed control at 500 g/ha [9, 23]: 0%
pest or weed control at 125 g/ha [10, 24]: 0%
pest or weed control at 500 g/ha [10, 25]: 0%
pest or weed control at 125 g/ha [11, 26]: 0%
pest or weed control at 500 g/ha [11, 27]: 0%
pest or weed control at 250 g/ha [12]: 0%
pest or weed control at 250 g/ha [13]: 0%
pest or weed control at 250 g/ha [14]: 0%
pest or weed control at 250 g/ha [15]: 0%

O=C(Nc1cccc(Cl)c1F)[C@H]1C(=O)N(C2CC2)CC[C@@H]1c1cccc(C(F)(F)F)c1 [Compound 926]
pest or weed control at 125 g/ha [1]: 0%
pest or weed control at 125 g/ha [2]: 0%
pest or weed control at 125 g/ha [3]: 40%
pest or weed control at 125 g/ha [4]: 40%
pest or weed control at 125 g/ha [5]: 0%
pest or weed control at 125 g/ha [6, 16]: 0%
pest or weed control at 500 g/ha [6, 28]: 0%
pest or weed control at 125 g/ha [7, 18]: 30%
pest or weed control at 500 g/ha [7, 29]: 90%
pest or weed control at 125 g/ha [8, 20]: 80%
pest or weed control at 500 g/ha [8, 30]: 90%
pest or weed control at 125 g/ha [9, 22]: 0%
pest or weed control at 500 g/ha [9, 31]: 0%
pest or weed control at 125 g/ha [10, 24]: 0%
pest or weed control at 500 g/ha [10, 32]: 0%
pest or weed control at 125 g/ha [11, 26]: 0%
pest or weed control at 500 g/ha [11, 33]: 0%
pest or weed control at 250 g/ha [12]: 0%
pest or weed control at 250 g/ha [13]: 0%
pest or weed control at 250 g/ha [14]: 0%
pest or weed control at 250 g/ha [15]: 0%

CS(=O)(=O)c1ccccc1NC(=O)[C@H]1C(=O)N(C2CC2)CC[C@@H]1c1cccc(C(F)(F)F)c1 [Compound 927]
pest or weed control at 125 g/ha [1]: 0%
pest or weed control at 125 g/ha [2]: 0%
pest or weed control at 125 g/ha [3]: 0%
pest or weed control at 125 g/ha [4]: 0%
pest or weed control at 125 g/ha [5]: 0%
pest or weed control at 125 g/ha [6, 16]: 0%
pest or weed control at 500 g/ha [6, 28]: 0%
pest or weed control at 125 g/ha [7, 18]: 0%
pest or weed control at 500 g/ha [7, 29]: 70%
pest or weed control at 125 g/ha [8, 20]: 0%
pest or weed control at 500 g/ha [8, 30]: 70%
pest or weed control at 125 g/ha [9, 22]: 0%
pest or weed control at 500 g/ha [9, 31]: 0%
pest or weed control at 125 g/ha [10, 24]: 0%
pest or weed control at 500 g/ha [10, 32]: 0%
pest or weed control at 125 g/ha [11, 26]: 0%
pest or weed control at 500 g/ha [11, 33]: 0%
pest or weed control at 250 g/ha [12]: 0%
pest or weed control at 250 g/ha [13]: 0%
pest or weed control at 250 g/ha [14]: 0%
pest or weed control at 250 g/ha [15]: 0%
